Data published in US7659270B2, “Hepatitis C virus inhibitors” (Bristol-Myers Squibb Company, priority 2006, dated 2010).

The compounds below were run on HCV 1b-377-neo replicon cells (assay: HCV replicon assay (HCV 1b-377-neo replicon cells)). Conditions: not given.
Format: cell-based, Hepatitis C virus genotype 1b
Set-up: EC50 range against HCV 1b (Range): scale not given here
In short: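 HCV genotype 1b (1b-377-neo) replicon cells, run as a validated replicon assay; parallel testing in replicon cells carrying the NS5A Y2065H resistance mutation.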

Compound	EC50 range against HCV 1b (Range)
COC(=O)N[C@H](C(=O)N1CCC[C@H]1c1ncc(-c2ccc(-c3ccc(-c4cnc([C@@H]5CCCN5C(=O)[C@@H](NC(=O)OC)C(C)C)[nH]4)cc3C(=O)O)cc2)[nH]1)C(C)C [Example M114, 4,4′-bis(2-((2S)-1-(N-(methoxycarbonyl)-L-valyl)-2-pyrrolidinyl)-1H-imidazol-5-yl)-2-biphenylcarboxylic acid]	>A
COC(=O)N[C@H](C(=O)N1CCC[C@H]1c1ncc(-c2ccc(-c3ccc(-c4cnc([C@@H]5CCCN5C(=O)[C@@H](NC(=O)OC)C(C)C)[nH]4)cc3C(N)=O)cc2)[nH]1)C(C)C [Example M118, methyl((1S)-1-(((2S)-2-(5-(2′-carbamoyl-4′-(2-((2S)-1-((2S)-2-((methoxycarbonyl)amino)-3-methylbutanoyl)-2-pyrrolidinyl)-1H-imidazol-5-yl)-4-biphenylyl)-1H-imidazol-2-yl)-1-pyrrolidinyl)carbonyl)-2-methylpropyl)carbamate]	>A

Same assay, conditions: Hepatitis C virus, read-out: EC50 range against HCV 1b (Range)

Compound	EC50 [nM]
COC(=O)N[C@H](C(=O)N1CCC[C@H]1c1ncc(-c2ccc(-c3ccc(-c4cnc([C@@H]5CCCN5C(=O)[C@@H](NC(=O)OC)C(C)C)[nH]4)cc3CO)cc2)[nH]1)C(C)C [Example M119, methyl((1S)-1-(((2S)-2-(5-(2-(hydroxymethyl)-4′-(2-((2S)-1-((2S)-2-((methoxycarbonyl)amino)-3-methylbutanoyl)-2-pyrrolidinyl)-1H-imidazol-5-yl)-4-biphenylyl)-1H-imidazol-2-yl)-1-pyrrolidinyl)carbonyl)-2-methylpropyl)carbamate]	100 to 999
COC(=O)N[C@H](C(=O)N1CCC[C@H]1c1ncc(-c2ccc(-c3ccc(-c4cnc([C@@H]5CCCN5C(=O)[C@@H](NC(=O)OC)C(C)C)[nH]4)cc3CN(C)C)cc2)[nH]1)C(C)C [Example M120, methyl((1S)-1-(((2S)-2-(5-(2-((dimethylamino)methyl)-4′-(2-((2S)-1-((2S)-2-((methoxycarbonyl)amino)-3-methylbutanoyl)-2-pyrrolidinyl)-1H-imidazol-5-yl)-4-biphenylyl)-1H-imidazol-2-yl)-1-pyrrolidinyl)carbonyl)-2-methylpropyl)carbamate]	100 to 999
COC(=O)N[C@@H](C(=O)N1CCC[C@H]1c1ncc(-c2ccc(-c3ccc(-c4cnc([C@@H]5CCCN5C(=O)[C@H](NC(=O)OC)c5ccccc5)[nH]4)cc3CN(C)C)cc2)[nH]1)c1ccccc1 [Example M121, dimethyl((2-((dimethylamino)methyl)-4,4′-biphenyldiyl)bis(1H-imidazole-5,2-diyl(2S)-2,1-pyrrolidinediyl((1R)-2-oxo-1-phenyl-2,1-ethanediyl)))biscarbamate]	100 to 999
COC(=O)N[C@H](C(=O)N1[C@H](c2ncc(-c3ccc(-c4ccc(-c5cnc([C@@H]6C[C@@H]7C[C@@H]7N6C(=O)[C@@H](NC(=O)OC)C(C)C)[nH]5)cc4)cc3)[nH]2)C[C@@H]2C[C@@H]21)C(C)C [Example M122, methyl((1S)-1-(((1S,3S,5S)-3-(5-(4′-(2-((1S,3S,5S)-2-((2S)-2-((methoxycarbonyl)amino)-3-methylbutanoyl)-2-azabicyclo[3.1.0]hex-3-yl)-1H-imidazol-5-yl)-4-biphenylyl)-1H-imidazol-2-yl)-2-azabicyclo[3.1.0]hex-2-yl)carbonyl)-2-methylpropyl)carbamate]	1 to 99
COC(=O)N[C@H](C(=O)N1CCC[C@H]1c1ncc(-c2ccc(-c3ccc(-c4cnc([C@@H]5CCCN5C(=O)[C@@H](Nc5ncccn5)C(C)C)[nH]4)cc3)cc2)[nH]1)C(C)C [cj-11, methyl((1S)-2-methyl-1-(((2S)-2-(5-(4′-(2-((2S)-1-(N-2-pyrimidinyl-L-valyl)-2-pyrrolidinyl)-1H-imidazol-5-yl)-4-biphenylyl)-1H-imidazol-2-yl)-1-pyrrolidinyl)carbonyl)propyl)carbamate]	0.01 to 0.999
COC(=O)N[C@H](C(=O)N1CCC[C@H]1c1ncc(-c2ccc(-c3ccc(-c4cnc([C@@H]5CCCN5C(=O)[C@@H](Nc5noc(N)n5)C(C)C)[nH]4)cc3)cc2)[nH]1)C(C)C [cj-16, methyl((1S)-1-(((2S)-2-(5-(4′-(2-((2S)-1-(N-(5-amino-1,2,4-oxadiazol-3-yl)-L-valyl)-2-pyrrolidinyl)-1H-imidazol-5-yl)-4-biphenylyl)-1H-imidazol-2-yl)-1-pyrrolidinyl)carbonyl)-2-methylpropyl)carbamate]	0.01 to 0.999
COC(=O)N[C@H](C(=O)N1CCC[C@H]1c1ncc(-c2ccc(-c3ccc(-c4cnc([C@@H]5CCCN5C(=O)[C@@H](NC(=NC#N)N(C)C)C(C)C)[nH]4)cc3)cc2)[nH]1)C(C)C [cj-17, methyl((1S)-1-(((2S)-2-(5-(4′-(2-((2S)-1-(N-(cyano(dimethyl)carbamimidoyl)-L-valyl)-2-pyrrolidinyl)-1H-imidazol-5-yl)-4-biphenylyl)-1H-imidazol-2-yl)-1-pyrrolidinyl)carbonyl)-2-methylpropyl)carbamate]	0.01 to 0.999

Same assay, conditions: read-out: EC50 range against HCV 1b (Range)

Compound	EC50 [nM]
CNCC(=O)N1CCC[C@H]1c1ncc(-c2ccc(-c3ccc(-c4cnc([C@@H]5CCCN5C(=O)[C@@H](NC(=O)OC)C(C)C)[nH]4)cc3)cc2)[nH]1 [LS20]	0.01 to 0.999
CCC(C)NCC(=O)N1CCC[C@H]1c1ncc(-c2ccc(-c3ccc(-c4cnc([C@@H]5CCCN5C(=O)[C@@H](NC(=O)OC)C(C)C)[nH]4)cc3)cc2)[nH]1 (some centres unmarked) [LS24]	0.01 to 0.999
